Data published in US9409884B2 (Rigel Pharmaceuticals, Inc., priority 2012, dated 2016).

Target: AMPK
Test: AMPK activation, enzyme-linked immunosorbent assay
Type: biochemical
Procedure, shortened: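 Read-out: ELISA, used to detect compound-driven activation of AMPK.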

EC50 (Table 8, compounds of Table 1) [µM]	EC50 (Table 12, compounds of Table 5) [µM]	Compound	further results
	< 1	N#Cc1ccc(N2CCC(Oc3ccc(C(=O)NC4CCN(Cc5ccc(Cl)cc5)CC4)cc3F)CC2)cc1 [Compound 5-81, N-(1-(4-chlorobenzyl)piperidin-4-yl)-4-(1-(4-cyanophenyl)piperidin-4-yloxy)-3-fluorobenzamide]	
	< 1	O=C(NC1CCN(Cc2ccc(F)cc2)CC1)c1ccc(OC2CCN(c3ccc(C(F)(F)F)cc3)CC2)c(F)c1 [Compound 5-27, 3-fluoro-N-(1-(4-fluorobenzyl)piperidin-4-yl)-4-(1-(4-(trifluoromethyl)phenyl)piperidin-4-yloxy)benzamide]	
	< 1	O=C(NC1CCN(Cc2ccccc2)CC1)c1ccc(OC2CCN(Cc3ccc(Cl)c(Cl)c3)CC2)c(F)c1 [Compound 5-82, N-(1-benzylpiperidin-4-yl)-4-(1-(3,4-dichlorobenzyl)piperidin-4-yloxy)-3-fluorobenzamide]	
	1 to 10	O=C(NCCCN1CCOCC1)c1ccc(OC2CCN(Cc3ccc(Cl)cc3)CC2)cc1 [Compound 5-100, 4-(1-(4-chlorobenzyl)piperidin-4-yloxy)-N-(3-morpholinopropyl)benzamide]	
	1 to 10	COc1cc(C(=O)NC2CCN(Cc3ccccc3)CC2)ccc1OC1CCN(c2ccco2)CC1 [Compound 5-12, N-(1-benzylpiperidin-4-yl)-3-methoxy-4-(1-(furan-2-yl)piperidin-4-yloxy)benzamide]	

The next lines start with the compound.

Compound	EC50 (Table 8, compounds of Table 1) [µM]	EC50 (Table 12, compounds of Table 5) [µM]	further results
CC(C)(C)OC(=O)N1CCC(NS(=O)(=O)c2ccc(OC3CCN(c4ccc(C(F)(F)F)cc4)CC3)nc2)CC1 [Compound 1-54, tert-butyl 4-(6-(1-(4-(trifluoromethyl)phenyl)piperidin-4-yloxy)pyridine-3-sulfonamido) piperidine-1-carboxylate]	1 to 5		
CC(C)(C)OC(=O)NCCCNC(=O)c1ccc(OC2CCN(c3ccc(C(F)(F)F)cc3)CC2)cn1 [Compound 1-49, tert-butyl 3-(5-(1-(4-(trifluoromethyl)phenyl)piperidin-4-yloxy)picolinamido) propylcarbamate]	< 0.1		
N#Cc1ccc(CN2CCC(Oc3ccc4oc(C(=O)NC5CCN(Cc6ccncc6)CC5)cc4c3)CC2)cc1 [Compound 1-79, 5-(1-(4-cyanobenzyl)piperidin-4-yloxy)-N-(1-(pyridin-4-ylmethyl)piperidin-4-yl)benzofuran-2-carboxamide]	0.1 to 0.5		
O=C(c1ccc(F)cc1)N1CC2CC1CN2C(=O)c1nc2ccc(OC3CCN(c4ccc(C(F)(F)F)cc4)CC3)cc2o1 (stereo not shown) [Compound 3-13, (5-(4-fluorobenzoyl)-2,5-diazabicyclo[2.2.1]heptan-2-yl)(6-(1-(4-(trifluoromethyl)phenyl)piperidin-4-yloxy)benzo[d]oxazol-2-yl)methanone]			EC50 (Table 10, compounds of Table 3): < 0.1 µM
CS(=O)(=O)c1ccc(CN2CCN(C(=O)c3ccc4oc(C(=O)NC5CCN(Cc6ccc(C#N)cc6)CC5)cc4c3)CC2)cc1OC(F)(F)F [Compound 6-111, N-(1-(4-cyanobenzyl)piperidin-4-yl)-5-(4-(4-(methylsulfonyl)-3-(trifluoromethoxy)benzyl)piperazine-1-carbonyl) benzofuran-2-carboxamide]			EC50 (Table 13, compounds of Table 6): 0.1 to 1 µM
N#Cc1ccc(CN2CCC(NC(=O)c3ccc(OC4CCN(c5ccc(C#N)cc5)CC4)cn3)CC2)cc1 [Compound 1-2, N-(1-(4-cyanobenzyl)piperidin-4-yl)-5-(1-(4-cyanophenyl)piperidin-4-yloxy) picolinamide]	< 0.1		
O=C(N[C@H]1CCN(Cc2ccc(F)cc2)C1)c1ccc(C(=O)N2CCN(c3ccc(Cl)cc3)CC2)cn1 [Compound 4-4, (S)-5-(4-(4-chlorophenyl)piperazine-1-carbonyl)-N-(1-(4-fluorobenzyl)pyrrolidin-3-yl)picolinamide]			EC50 (Table 11, compounds of Table 4): 1 to 5 µM
O=C(NCCCNCc1ccncc1)c1ccc(OC2CCN(c3ccc(C(F)(F)F)cc3)CC2)cn1 [Compound 1-50, N-(3-(pyridin-4-ylmethylamino)propyl)-5-(1-(4-(trifluoromethyl)phenyl)piperidin-4-yloxy)picolinamide]	1 to 5		
